Experimental data as given in BigSolDB 2.1.

`Nc1ccc(Oc2ccc(N)cc2)cc1` showed a solubility (mole fraction) (in DMAc, 293.15 K) of 0.14, a solubility (mole fraction) (in DMAc, 298.15 K) of 0.144 and a solubility (mole fraction) (in DMAc, 303.15 K) of 0.148. It also gave a solubility (mole fraction) (in DMAc, 308.15 K) of 0.152, a solubility (mole fraction) (in DMAc, 313.15 K) of 0.157 and a solubility (mole fraction) (in DMAc, 318.15 K) of 0.164. It also gave a solubility (mole fraction) (in DMAc, 323.15 K) of 0.166, a solubility (mole fraction) (in DMAc, 328.15 K) of 0.177 and a solubility (mole fraction) (in DMAc, 333.15 K) of 0.184. For the same molecule, the solubility (mole fraction) (in DMF, 293.15 K) was 0.113, the solubility (mole fraction) (in DMF, 298.15 K) was 0.117 and the solubility (mole fraction) (in DMF, 303.15 K) was 0.12. The solubility (mole fraction) (in DMF, 308.15 K) was 0.126, the solubility (mole fraction) (in DMF, 313.15 K) was 0.132 and the solubility (mole fraction) (in DMF, 318.15 K) was 0.139. It also gave a solubility (mole fraction) (in DMF, 323.15 K) of 0.146, a solubility (mole fraction) (in DMF, 328.15 K) of 0.152 and a solubility (mole fraction) (in DMF, 333.15 K) of 0.161. For the same molecule, the solubility (mole fraction) (in DMSO, 293.15 K) was 0.149, the solubility (mole fraction) (in DMSO, 298.15 K) was 0.153 and the solubility (mole fraction) (in DMSO, 303.15 K) was 0.159. The solubility (mole fraction) (in DMSO, 308.15 K) was 0.165, the solubility (mole fraction) (in DMSO, 313.15 K) was 0.171 and the solubility (mole fraction) (in DMSO, 318.15 K) was 0.181. For the same molecule, the solubility (mole fraction) (in DMSO, 323.15 K) was 0.185, the solubility (mole fraction) (in DMSO, 328.15 K) was 0.192 and the solubility (mole fraction) (in DMSO, 333.15 K) was 0.201.
